Assay results: US11965126B2, “Flame retardant for thermosetting resin including aromatic phosphoric acid ester, thermosetting resin composition including same, and cured material and application of same” (priority 2018, dated 2024)
Like-named read-outs stand apart in the source and are kept apart here.

Assay: Solvent solubility of flame retardants
Format: physicochemical
Details: for Solvent solubility compared with FR4 and FR5: comparison with traditionally-known phosphorus-type flame retardants FR4 and FR5
Method: 5 g of a flame retardant was added repeatedly to 100 mL of the following respective solvents at a temperature of 20° C. until the undissolved flame retardant was detected; and a largest amount of the flame retardant dissolved was measured. This largest amount was considered to be solvent solubility. • Solvents: toluene, methyl ethyl ketone (MEK), and propylene glycol monomethyl ether (PM) Materials for Synthesizing Aromatic Phosphoric Acid Esters
Flame retardants FR1 to FR4 as the flame retardants for thermosetting resin were evaluated for solvent solubility by the above method.

[1] = methyl ethyl ketone, 20° C., largest amount dissolved, added in 5 g portions
[2] = propylene glycol monomethyl ether, 20° C., largest amount dissolved, added in 5 g portions
[3] = toluene, 20° C., largest amount dissolved, added in 5 g portions

SMILES | Solvent solubility compared with FR4 and FR5 | Solvent solubility, MEK [1] [g/100 mL] | Solvent solubility, PM [2] [g/100 mL] | Solvent solubility, Toluene [3] [g/100 mL] | Solvent solubility, MEK [g/100 mL] | Solvent solubility, PM [g/100 mL] | Solvent solubility, Toluene [g/100 mL]
Cc1cccc(C)c1OP(=O)(Oc1ccc(C2(c3ccc(OP(=O)(Oc4c(C)cccc4C)Oc4c(C)cccc4C)cc3)CCCCCCCCCCC2)cc1)Oc1c(C)cccc1C [FR2] | superior in solvent solubility | 50 | 10 | 130 |  |  | 
Cc1cccc(C)c1OP(=O)(Oc1ccc(C2(c3ccc(OP(=O)(Oc4c(C)cccc4C)Oc4c(C)cccc4C)cc3)CC(C)CC(C)(C)C2)cc1)Oc1c(C)cccc1C (centres unmarked) [FR1] | superior in solvent solubility | 135 | 85 | 140 |  |  | 
O=[PH]1Oc2ccccc2-c2ccccc21 (centres unmarked) [FR5, 9,10-dihydro-9-oxa-10-phosphaphenanthrene-10-oxide, reference compound] |  | 5 | 15 | <5 |  |  | 
Cc1cccc(C)c1OP(=O)(Oc1cccc(OP(=O)(Oc2c(C)cccc2C)Oc2c(C)cccc2C)c1)Oc1c(C)cccc1C [FR3, 1,3-phenylenebis(di-2,6-xylyl phosphate), reference compound] |  |  |  |  | 55 | 10 | 75
